Data on 1 compound can be found in patent US20160017054A1, “Spermidine/Spermine N1 - Acetyltransferase Antibodies As Anti-Cancer Drug Compounds” (BIOMARK TECHNOLOGIES INC., priority 2013, published 2016).

The structures appear in SMILES notation.

This assay concerns human tumor cell lines U2-OS, HeLa, Malme-3M, PC-3 and HEK293. Description: Relative cell viability (percent confluency) during incubation with spermidine. As to conditions: spermidine 22 μM to 550 μM. In kind it is cell-based.

`NCCCCNCCCN` [spermidine, Spermidine]: the “relative cell viability, expressed as percent confluency” value reads like this: (SSAT non-expressing cell lines (U2-OS and HeLa)) “highest”; (SSAT over-expressing cell lines (Malme-M3 and PC-3)) “lowest”.
